Our source for the MIC values is DBAASP.

SMILES strings stand for the structures. Converted amounts (≈) assume the structure as drawn.

Common to all, as to experiment: ≥ marks a high value that may be exact or a test limit, other limits are often not marked, values filed in µg/mL are converted to µM
The test system of test [1] is Enterococcus faecalis ATCC 29212.
Test [2] relates to Candida krusei.
In test [3] the test system is Fusarium oxysporum.
For test [4], the system named is Aspergillus fumigatus ATCC MYA-1163.
For test [5], the system named is Aspergillus nidulans AZN 2867.
For test [6], the system named is Staphylococcus aureus ATCC 43300.
Test [7] deals with Candida glabrata.
The test system of test [8] is Aspergillus ustus.
The test system of test [9] is Cryptococcus neoformans CM133.
Test [10] deals with Escherichia coli ATCC 25922.
The test system of test [11] is Candida albicans ATCC 24433.
For test [12], the system named is Pseudomonas aeruginosa ATCC 27853.
Test [13] relates to Staphylococcus aureus ATCC 25923.
In test [14] the test system is Salmonella enterica subsp. enterica serovar Enteritidis.
Test [15] has as its system Fusarium solani AZN 6836.
In test [16] the test system is Rhizopus oryzae AZN 8892.
For test [17], the system named is Candida tropicalis.
The subject of test [18] is Klebsiella pneumoniae ATCC 10031.
Test [19] concerns Bacillus anthracis.
Test [20] relates to Bacillus cereus.
Test [21] relates to Staphylococcus aureus.
Test [22] relates to Escherichia coli.
The subject of test [23] is Escherichia coli UB1005.
Test [24] deals with Corynebacterium xerosis C875.
Test [25] concerns Staphylococcus epidermidis C621.
For test [26], the system named is Escherichia coli DC2.
Test [27] has as its system Staphylococcus aureus ATCC BAA-39.
Test [28] deals with Salmonella enterica subsp. enterica serovar Typhimurium ATCC 700408.
Test [29] relates to Salmonella enterica subsp. enterica serovar Typhimurium ATCC 14028.
The subject of test [30] is Klebsiella pneumoniae ATCC 13883.
In test [31] the test system is Listeria monocytogenes ATCC 19115.

One may read the MIC as the lowest concentration that inhibits growth of the organism. As for `CC(C)C[C@@H]1NC(=O)[C@@H](NC(=O)[C@@H](N)CC(=O)O)CSSC[C@@H](C(=O)O)NC(=O)CNC(=O)[C@H](CCC(=O)O)NC(=O)[C@@H]2CSSC[C@@H]3NC(=O)[C@H](C(C)C)NC(=O)[C@H](CCCN=C(N)N)NC(=O)[C@H](CCCN=C(N)N)NC(=O)[C@@H]4CSSC[C@H](NC(=O)[C@H](CCCCN)NC(=O)[C@H](CC(C)C)NC(=O)[C@H](CO)NC(=O)[C@@H]5CCCN5C(=O)[C@H](CO)NC(=O)[C@H](CSSC[C@H](NC(=O)[C@@H]5CCCN5C(=O)CNC(=O)[C@H](CCCCN)NC(=O)[C@H](Cc5ccc(O)cc5)NC(=O)[C@H](CCCN=C(N)N)NC(=O)CNC(=O)[C@H](CO)NC1=O)C(=O)N[C@@H](C)C(=O)N[C@@H](C(C)C)C(=O)N[C@@H](Cc1c[nH]c5ccccc15)C(=O)N[C@@H](CC(=O)O)C(=O)N[C@@H](CC(N)=O)C(=O)N[C@@H](CCC(=O)O)C(=O)N[C@@H]([C@@H](C)O)C(=O)N4)NC(=O)[C@H](Cc1cnc[nH]1)NC(=O)CNC(=O)[C@H](CO)NC(=O)[C@H](CO)NC(=O)[C@H](CCCN=C(N)N)NC(=O)CNC(=O)[C@H](CCC(=O)O)NC(=O)[C@H](CCC(=O)O)NC(=O)[C@H](CCCCN)NC3=O)C(=O)N[C@@H](Cc1c[nH]c3ccccc13)C(=O)N2` [DCLSGRYKGPCAVWDNETCRRVCKEEGRSSGHCSPSLKCWCEGC], the MIC in test [1] is over 50 µM; in test [2], at least 50 µM; in [3], 6.25 µM (≈ 30.6 µg/mL); in test [4], 6.25 µM (≈ 30.6 µg/mL); in [5], at least 50 µM; in test [6], over 50 µM. Moreover, the MIC in test [7] was at least 50 µM; in [8], 25 µM (≈ 122 µg/mL); in test [9] it was at least 50 µM; in test [10], over 50 µM; in [11], at least 50 µM; in [12], over 50 µM. The MIC in test [13] is over 50 µM; in [14], at least 50 µM; in [15], 25 µM (≈ 122 µg/mL); in [16], at least 50 µM; in test [17] it was at least 50 µM; in test [18], at least 50 µM.
Turning to `CC[C@H](C)[C@H](NC(=O)[C@H](CC(C)C)NC(=O)[C@H](C)NC(=O)[C@@H]1CCCN1C(=O)[C@H](Cc1ccccc1)NC(=O)[C@@H](NC(=O)[C@H](CCCCN)NC(=O)[C@H](CO)NC(=O)[C@H](C)NC(=O)[C@@H](NC(=O)[C@H](CCCN=C(N)N)NC(=O)[C@H](Cc1ccccc1)NC(=O)[C@@H](NC(=O)[C@@H](NC(=O)[C@@H]1CCCN1C(=O)[C@@H](N)CC(C)C)C(C)C)C(C)C)C(C)C)C(C)C)C(=O)N[C@@H](CO)C(=O)N[C@@H](CCCCN)C(=O)N[C@@H](CC(C)C)C(=O)N[C@H](C(=O)O)[C@@H](C)O` [LPVVFRVASKVFPALISKLT], the MIC is at least 58.6 µM in test [19], at least 117 µM in test [20], 117 µM (≈ 256 µg/mL) in [21] and over 117 µM in test [22].
With `CC(C)C[C@H](NC(=O)[C@H](C)NC(=O)[C@H](C)NC(=O)[C@H](C)NC(=O)[C@H](CCCCN)NC(=O)[C@@H](N)CCCCN)C(=O)N[C@@H](C)C(=O)N[C@@H](C)C(=O)N[C@@H](C)C(=O)N[C@@H](C)C(=O)N[C@@H](C)C(=O)N[C@@H](CC(C)C)C(=O)N[C@@H](C)C(=O)N[C@@H](C)C(=O)N[C@@H](Cc1c[nH]c2ccccc12)C(=O)N[C@@H](C)C(=O)N[C@@H](C)C(=O)N[C@@H](CC(C)C)C(=O)N[C@@H](C)C(=O)N[C@@H](C)C(=O)N[C@@H](C)C(=O)N[C@@H](CCCCN)C(=O)N[C@@H](CCCCN)C(=O)N[C@@H](CCCCN)C(=O)N[C@@H](CCCCN)C(N)=O` [KKAAALAAAAALAAWAALAAAKKKK], the MIC in test [23] is at least 32 µM; in test [24], 0.25 µM (≈ 0.594 µg/mL); in test [25], 2 µM (≈ 4.76 µg/mL); in test [26], 16 µM (≈ 38 µg/mL).
For `CC(C)C[C@H](NC(=O)[C@H](CCCN=C(N)N)NC(=O)CNC(=O)[C@H](CCC(N)=O)NC(=O)[C@@H]1CCCN1C(=O)[C@H](CC(C)C)NC(=O)[C@H](CCCCN)NC(=O)[C@H](Cc1ccccc1)NC(=O)[C@@H](NC(=O)[C@@H]1CCCN1C(=O)[C@H](CCC(N)=O)NC(=O)[C@H](CO)NC(=O)[C@H](Cc1ccccc1)NC(=O)[C@H](CCCN=C(N)N)NC(=O)[C@@H](N)CCC(N)=O)[C@@H](C)O)C(=O)N[C@H](C(=O)N[C@@H](CC(C)C)C(=O)N[C@@H](CO)C(=O)N[C@@H](CCCN=C(N)N)C(=O)N[C@@H](CCCCN)C(=O)N[C@@H](Cc1ccccc1)C(=O)O)[C@@H](C)O` [QRFSQPTFKLPQGRLTLSRKF], the MIC in test [27] was at least 39.4 µM; in test [6], 39.4 µM (≈ 100 µg/mL); in [28], 9.86 µM (≈ 25 µg/mL); in test [29], 9.86 µM (≈ 25 µg/mL); in test [10], 9.86 µM (≈ 25 µg/mL); in [30], 9.86 µM (≈ 25 µg/mL). Further, the MIC in test [13] amounted to 39.4 µM (≈ 100 µg/mL); in [31], 9.86 µM (≈ 25 µg/mL).
